Test results as given in ChEMBL document CHEMBL4831538, “Repositioning of the Anthelmintic Drugs Bithionol and Triclabendazole as Transthyretin Amyloidogenesis Inhibitors” (J Med Chem, 2021).
The source made the active and inactive calls. The calls are words filed in the database; no cut-off is given here.

Columns and labels:
[1] = test system: Transthyretin (Homo sapiens), P02766 [V50M]; assay: Stabilization of TTR V30M mutant (unknown origin) assessed as suppression of TTR tetramer dissociation at 3 uM incubated for 9 days by glutaraldehyde cross-linking assay based SDS-PAGE analysis relative to control; settings: time 9.0 day
[2] = test system: Transthyretin (Homo sapiens), P02766 [V50M]; assay: Stabilization of TTR V30M mutant (unknown origin) assessed as suppression of TTR tetramer dissociation at 1 to 10 uM incubated for 9 days by glutaraldehyde cross-linking assay based SDS-PAGE analysis; settings: dose 1-10 µM, time 9.0 day
[3] = test system: Transthyretin (Homo sapiens), P02766 [V50M]; assay: (§1) Stabilization of TTR V30M mutant (unknown origin) assessed as acid-mediated protein aggregation inhibition ratio incubated for 1 week by absorbance method; settings: time 1.0 weeks
Transthyretin [4] = target: T1, Transthyretin (Homo sapiens, UniProt P02766); assay: Stabilization of wild type TTR (unknown origin) expressed in Escherichia coli assessed as reduction in methanol-induced aggregation at 50 uM incubated for 60 min by absorbance method
[5] = test system: Transthyretin (Homo sapiens), P02766 [V142I]; assay: Stabilization of TTR V142I mutant (unknown origin) expressed in Escherichia coli assessed as reduction in trypsin-induced aggregation incubated for 3 to 4 days by absorbance method; settings: time 3-4 day
Transthyretin [6] = target: T2, Transthyretin (Homo sapiens, UniProt P02766, V50M); assay: Binding affinity to TTR V30M mutant (unknown origin) expressed in Escherichia coli incubated for 60 mins by tryptophan intrinsic fluorescence method; settings: read-out: Kd(app)
Transthyretin [7] = target: T2, Transthyretin; assay: as §1
Transthyretin [8] = target: T1, Transthyretin; assay: Stabilization of wild type TTR (unknown origin) expressed in Escherichia coli assessed as reduction in methanol-induced aggregation incubated for 60 min by absorbance method
Transthyretin [9] = target: T2, Transthyretin; assay: Binding affinity to TTR V30M mutant (unknown origin) by isothermal titration calorimetry

Structure (SMILES)	Activity [1] [%]	Activity [2]	Activity [3]	Activity (Transthyretin [4])	Activity [5]	Kd (Transthyretin [6]) [µM]	IC50 (Transthyretin [7]) [µM]	IC50 (Transthyretin [8]) [µM]	Kd (Transthyretin [9]) [µM]
O=C(O)c1ccc2nc(-c3cc(Cl)cc(Cl)c3)oc2c1	100	Active	Dose-Dependent Effect	Active	Dose-Dependent Effect				
CC(C)=COc1ccc(/C=C/C(O)c2ccc(OC=C(C)C)cc2OCC(=O)O)cc1 (stereo not drawn)						6.5			
O=C(O)c1cc(-c2ccc(F)cc2F)ccc1O		Active	Dose-Dependent Effect						
Cc1ccc(C(=O)c2cc(O)c(O)c([N+](=O)[O-])c2)cc1	100	Active	Dose-Dependent Effect		Dose-Dependent Effect				
CC(C)c1ccc2oc3nc(N)c(C(=O)O)cc3c(=O)c2c1 [AMLEXANOX]						20			
CSc1nc2cc(Cl)c(Oc3cccc(Cl)c3Cl)cc2[nH]1 [TRICLABENDAZOLE]	100	Active	Dose-Dependent Effect	Active	Dose-Dependent Effect		3.5		
Oc1c(Cl)cc(Cl)cc1Sc1cc(Cl)cc(Cl)c1O [BITHIONOL]	100	Active	Dose-Dependent Effect		Dose-Dependent Effect	1.1	2.4	3	0.062
Oc1ccc(Cl)cc1Cc1cc(Cl)ccc1O		Active							
